The results in this text go back to patent US8399520B2, “Selective estrogen receptor modulator” (Eisai R&D Management Co., Ltd., priority 2002, dated 2013).

As a reminder, the Ki is a measure of affinity in units of concentration, obtained from inhibition or displacement.

The test addresses T1, estrogen receptor derived from bovine uterus (Bos taurus, UniProt P49884).
T1 construct: estrogen receptor derived from bovine uterus was diluted with the assay buffer solution so that 10 to 20 μg total protein was present; from tissue; host or cells: bovine uterus
T1 sequence (P49884 1-596): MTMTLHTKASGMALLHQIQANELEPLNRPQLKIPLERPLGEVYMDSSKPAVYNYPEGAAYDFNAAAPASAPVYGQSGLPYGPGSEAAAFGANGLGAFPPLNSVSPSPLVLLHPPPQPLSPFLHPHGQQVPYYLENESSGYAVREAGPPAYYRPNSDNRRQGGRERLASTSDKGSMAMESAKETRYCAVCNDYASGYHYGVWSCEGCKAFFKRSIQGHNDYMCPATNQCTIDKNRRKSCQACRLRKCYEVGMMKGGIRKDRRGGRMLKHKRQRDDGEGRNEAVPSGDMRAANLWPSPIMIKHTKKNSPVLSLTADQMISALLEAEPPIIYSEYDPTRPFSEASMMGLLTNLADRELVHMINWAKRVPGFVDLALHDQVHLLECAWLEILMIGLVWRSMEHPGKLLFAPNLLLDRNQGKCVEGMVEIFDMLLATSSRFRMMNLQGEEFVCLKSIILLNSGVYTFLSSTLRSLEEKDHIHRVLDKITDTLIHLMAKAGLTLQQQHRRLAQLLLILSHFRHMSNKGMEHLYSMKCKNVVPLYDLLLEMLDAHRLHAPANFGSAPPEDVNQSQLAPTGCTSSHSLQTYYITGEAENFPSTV
Nature of the test: In vitro estrogen receptor binding assay. Conditions: read-out: Estrogen receptor binding affinity: Ki. The procedure:
The binding affinity of the compound according to the present invention to estrogen receptor was measured using an in vitro estrogen receptor binding assay. The binding affinity measures the ability of the compound according to the present invention to remove [^3H]-estradiol from estrogen receptor derived from bovine uterus. The following materials were used in this assay: (1) the assay buffer solution was 20 mM Tris/HCl (pH 7.5) containing 1 mM dithiothreitol (DTT), 1 mM EDTA and 10% glycerol; (2) radioactive ligand was [^3H]-estradiol purchased from Amersham Life Science; (3) the cold ligand was diethylstilbestrol purchased from sigma (Sigma); and (4) the estrogen receptor was derived from bovine uterus. The compound to be tested was prepared as a 10% DMSO solution. [^3H]-estradiol was dissolved in the assay buffer solution so as to obtain a final concentration of 1 nM. […] Each plate contains total binding, non-specific binding and the binding which were not inhibited by various concentrations of the compound. The plate was incubated for 1 hour at room temperature. […] These mixtures were centrifuged, and the supernatant thereof was evaluated for its radioactivity using a liquid scintillation counter. Specific binding was calculated by subtracting non-specific binding dpm (counts remaining in the supernatant obtained by centrifugal separation of a reaction mixture containing estrogen receptor derived from bovine uterus, radioactive ligand and excess cold ligand) from the total binding dpm (counts remaining in the supernatant obtained by centrifugal separation of a reaction mixture containing estrogen receptor derived from bovine uterus and radioactive ligand only). The effectiveness of the compound was evaluated by Ki. […] C is the concentration of [^3H]-estradiol in the reaction mixture, and Kd is the [^3H]-estradiol dissociation constant. The Kd was determined by Scatchard analysis. That is to say, various concentrations of [^3H]-estradiol were used to measure the concentration of specifically bound [^3H]-estradiol, which served as the horizontal axis, the value which was obtained by dividing the concentration of specifically bound [^3H]-estradiol by the concentration [^3H]-estradiol not bound to the receptor served as the vertical axis to produce a plot, and the negative value of the inverse of the slope of the resulting straight line was used as Kd.
Consider `CCN(Cc1ccc(OCCN2CCCCC2)c(F)c1)c1cc(O)ccc1[C@@H]1CCc2cc(O)ccc2C1` [188 (R), (R)-6-{2-{ethyl-[3-fluoro-4-(2-piperidin-1-ylethoxy)benzyl]amino}-4-hydroxyphenyl}-5,6,7,8-tetrahydronaphthalen-2-ol], for which the inhibition constant (Ki) is 1.2 nM.
Take `O=C(c1ccc(OCCN2CCCCC2)cc1)c1cc(O)ccc1-c1ccc2cc(O)ccc2c1` [Example 8, [5-Hydroxy-2-(6-hydroxynaphthalen-2-yl)phenyl][4-(2-piperidin-1-yl-ethoxy)phenyl]methanone]: the Ki amounted to 0.64 nM.
On to `O=c1cccc(C2=Cc3ccc(O)cc3CCC2)n1Cc1ccc(OCCN2CCCCCC2)cc1` [Example 15, 1-[4-(2-Azepan-1-ylethoxy)benzyl]-6-(2-hydroxy-8,9-dihydro-7H-benzocyclohepten-6-yl)-1H-pyridin-2-one], for which the Ki came to 60 nM.
As to `Oc1ccc2c(c1)CCN(c1cc(O)ccc1Cc1ccc(OCCN3CCCCC3)cc1)CC2` [Example 21, 3-{5-Hydroxy-2-[4-(2-piperidin-1-ylethoxy)benzyl]phenyl}-2,3,4,5-tetrahydro-1H-benz[d]azepin-7-ol], the Ki was 47 nM.
On to `CCN(CC)c1cc(O)ccc1C1CCc2cc(O)ccc2C1` (stereo not drawn) [Example 44, 6-(2-Diethylamino-4-hydroxyphenyl)-5,6,7,8-tetrahydronaphthalen-2-ol], for which the Ki worked out at 21 nM.
The figure for `CCN(Cc1ccccc1)c1cc(O)ccc1C1CCc2cc(O)ccc2C1` (stereo not drawn) [Example 45, 6-[2-(Benzylethylamino)-4-hydroxyphenyl]-5,6,7,8-tetrahydronaphthalen-2-ol] is 8.4 nM.
Take `CN(CCc1ccc(O)cc1)c1cc(O)ccc1C1CCc2cc(O)ccc2C1` (stereo not drawn) [Example 48, 6-{4-Hydroxy-2-{[2-(4-hydroxyphenyl)ethyl]methylamino}phenyl}-5,6,7,8-tetrahydronaphthalen-2-ol]: the Ki came out at 13 nM.
Regarding `CCN(Cc1ccncc1)c1cc(O)ccc1C1CCc2cc(O)ccc2C1` (stereo not drawn) [Example 54, 6-{2-[Ethyl(pyridin-4-ylmethyl)amino]-4-hydroxyphenyl}-5,6,7,8-tetrahydronaphthalen-2-ol], the Ki turned out to be 32 nM.
For `CCn1ccc2c(O)ccc(C3CCc4cc(O)ccc4C3)c21` (stereo not drawn) [Example 55, 1-Ethyl-7-(6-hydroxy-1,2,3,4-tetrahydronaphthalen-2-yl)-1H-indol-4-ol], the Ki amounted to 84 nM.
As to `CN(Cc1ccc(OCCN2CCCCC2)cc1)c1cc(O)ccc1-c1ccc2cc(O)ccc2c1` [Example 113, 6-{4-Hydroxy-2-{methyl[4-(2-piperidin-1-ylethoxy)benzyl]amino}phenyl}naphthalen-2-ol], the inhibitory constant (Ki) is 1.6 nM.
The figure for `Oc1ccc2c(c1)CCC(c1ccc(O)cc1NCc1ccc(OCCN3CCCCC3)cc1)=C2` [Example 130, 6-{4-Hydroxy-2-[4-(2-piperidin-1-ylethoxy)benzylamino]phenyl}-7,8-dihydronaphthalen-2-ol] is 8.2 nM.
The figure for `OCCN(Cc1ccc(OCCN2CCCCCC2)cc1)c1cc(O)ccc1C1CCc2cc(O)ccc2C1` (stereo not drawn) [Example 177, 6-{2-{[4-(2-Azepan-1-ylethoxy)benzyl](2-hydroxyethyl)amino}-4-hydroxyphenyl}-5,6,7,8-tetrahydronaphthalen-2-ol] is 18 nM; for `Oc1ccc2c(c1)CCC(c1ccc(O)cc1N(Cc1ccc(OCCN3CCCCCC3)cc1)CC(F)(F)F)C2` (stereo not drawn) [Example 179, 6-{2-{[4-(2-Azepan-1-ylethoxy)benzyl](2,2,2-trifluoroethyl)amino}-4-hydroxyphenyl}-5,6,7,8-tetrahydronaphthalen-2-ol] it is 9 nM; for `COCCN(Cc1ccc(OCCN2CCCCC2)c(F)c1)c1cc(O)ccc1C1CCc2cc(O)ccc2C1` (stereo not drawn) [Example 183, 6-{2-{[3-Fluoro-4-(2-piperidin-1-ylethoxy)benzyl](2-methoxyethyl)amino}-4-hydroxyphenyl}-5,6,7,8-tetrahydronaphthalen-2-ol] it is 18 nM.
Regarding `CCN(Cc1ccc(OCCN2CCCCCC2)cc1)c1cccc(C)c1C1CCc2cc(O)ccc2C1` (stereo not drawn) [Example 293, 6-{2-{[4-(2-Azepan-1-ylethoxy)benzyl]ethylamino}-6-methylphenyl}-5,6,7,8-tetrahydronaphthalen-2-ol], the Ki is 32 nM.
The figure for `CCN(Cc1ccc(OCCN2CCCCC2)c(F)c1)c1ccc(F)cc1C1CCc2cc(O)ccc2C1` (stereo not drawn) [Example 295, 6-{2-{Ethyl[3-fluoro-4-(2-piperidin-1-ylethoxy)benzyl]amino}-5-fluorophenyl}-5,6,7,8-tetrahydronaphthalen-2-ol] is 17 nM; for `CCN(Cc1ccc(OCCN2CCCCCC2)cc1)c1cc(O)ccc1C1CCCc2cc(O)ccc2C1` (stereo not drawn) [Example 298, 6-{2-{[4-(2-Azepan-1-ylethoxy)benzyl]ethylamino}-4-hydroxyphenyl}-6,7,8,9-tetrahydro-5H-benzocyclohepten-2-ol] it is 13 nM.
For `CC1(C)c2ccc(O)cc2CCC1c1ccc(O)cc1Nc1ccc(OCCN2CCCCC2)c(F)c1` (stereo not drawn) [Example 305, 6-{2-[3-Fluoro-4-(2-piperidin-1-ylethoxy)phenylamino]-4-hydroxyphenyl}-5,5-dimethyl-5,6,7,8-tetrahydronaphthalen-2-ol], the Ki stood at 8.6 nM.
In the case of `CCN(Cc1ccc(OCCN2CCCCCC2)cc1)c1cc(O)ccc1C1=Cc2ccc(O)cc2CC1(C)C` [Example 311, 6-{2-{[4-(2-Azepan-1-ylethoxy)benzyl]ethylamino}-4-hydroxyphenyl}-7,7-dimethyl-7,8-dihydronaphthalen-2-ol], the Ki came out at 5.1 nM.
`Oc1ccc(-c2nc3ccc(O)cc3s2)c(NCc2ccc(OCCN3CCCCC3)cc2)c1` [Example 319, 2-{4-Hydroxy-2-[4-(2-piperidin-1-ylethoxy)benzylamino]phenyl}benzothiazol-6-ol]: the Ki was found to be 1.6 nM.
Regarding `CCN(Cc1ccc(OCCN2CCCCC2)c(F)c1)c1cc(O)ccc1-c1cc2ccc(O)cc2s1` [Example 322, 2-{2-{Ethyl[3-fluoro-4-(2-piperidin-1-ylethoxy)benzyl]amino}-4-hydroxyphenyl}benzo[b]thiophen-6-ol], the Ki came out at 3.1 nM.
The figure for `ON=C1CCc2cc(-c3ccc(O)cc3Nc3ccc(OCCN4CCCCC4)cc3)ccc21` [Example 327, 5-{4-Hydroxy-2-[4-(2-piperidin-1-ylethoxy)phenylamino]phenyl}indan-1-one oxime] is 42 nM; for `CCN(Cc1ccc(OCCN2CCCCCC2)cc1)c1cc(O)ccc1C1CCN(c2cccc(O)c2)C1` (stereo not drawn) [Example 329, 3-{[4-(2-Azepan-1-ylethoxy)benzyl]ethylamino}-4-[1-(3-hydroxyphenyl)pyrrolidin-3-yl]phenol] it is 94 nM; for `Oc1ccc2c(c1)CCC(c1ccc(O)cc1N1Cc3ccc(OCCN4CCCCC4)cc3C1)C2` (stereo not drawn) [Example 338, 6-{4-Hydroxy-2-[5-(2-piperidin-1-ylethoxy)-1,3-dihydroisoindol-2-yl]phenyl}-5,6,7,8-tetrahydronaphthalen-2-ol] it is 22 nM.
As to `CN(Cc1ccc(OCCN2CCCCC2)cc1)c1cc(O)ccc1CCc1ccc(O)cc1` [Example 343, 4-[2-(4-Hydroxyphenyl)ethyl]-3-{methyl-[4-(2-piperidin-1-ylethoxy)benzyl]amino}phenol], the inhibition constant Ki is 31 nM.
As for `Oc1ccc(/C=C/c2ccc(O)cc2NCc2ccc(OCCN3CCCCC3)c(F)c2)cc1` [Example 349, 3-[3-Fluoro-4-(2-piperidin-1-ylethoxy)benzylamino]-4-[2-(4-hydroxyphenyl)vinyl]phenol], the Ki was 16 nM.
Turning to `CC(C)N(CCOc1ccc(CCc2cc(O)ccc2C2CCc3cc(O)ccc3C2)cc1)C(C)C` (stereo not drawn) [Example 357, 6-{2-{2-[4-(2-Diisopropylaminoethoxy)phenyl]ethyl}-4-hydroxyphenyl}-5,6,7,8-tetrahydronaphthalen-2-ol], the Ki amounted to 8.2 nM.
